Laboratory results reported in patent US5800838A, “Composition that inhibits or destroys at least one unicellular living organism containing fluorine F- and Lithium li+” (priority 1987, dated 1998).
One block for each molecule: values may come before it.

How the values were obtained:
[1] = test system: Klebsiella pneumonia; assay: Phenotype of resistant wild-type hospital strains with activated antibiotics (Example 35); format: cell-based; conditions: Fli 4 ppm
Procedure: Strains Gram+ and Gram- (wild-type hospital) having a resistant phenotype vis a vis standard firstly and secondly used antibiotherapy were experimented on activated antibiotics.
250 experiments were conducted on the following strains: Streptococcus group B, C, D, F, G, Staphylococcus aureus, Staphylococcus epidermitis, Klebsiella pneumoniae, Klebsiella spirochete, Klebsiella oxytoca, Proteus mirabilis, Serratia marcescens, Escherichia coli, Citrobacter freundii, Enterobacter cloacae, Enterobacter calcoaceticus, Salmonella spirochete, Salmonella typhimurium, Pseudomonas aeruginosa, Haemophilus influenzae, Haemophilus sphrophilus, Acinetobacter calcoaeticus. […]

[2] = test system: Pseudomonas aeruginosa; assay: MIC of antibiotics by microdilution in liquid medium on plates (Example 18); format: cell-based; conditions: Pseudomonas aeruginosa, read-out: MIC (average MIC value)
Procedure: The unicellular living organism chosen for the trials is Pseudomonas aeruginosa (wild-type strain originating from hospital sources).
The same methodology as for Examples 11 and 12 was follows. Bacteriostatic analyses were performed with a number of antibiotics belonging to benzylpenicillins, and aminopenicillins, and first and second generation cephalosporins, namely:
The determination of the MIC was carried out by the microdilution method in liquid medium on plates. Aqueous solutions of each antibiotic are prepared in MUELLER HINION broth, to obtain dilutions in a geometric ratio of 2. The solvent is sterile double-distilled water.
The preparation of the bacterial inoculum is made with a culture of Pseudomonas aeruginosa, with agitation on a water bath at 37° C. for 4 to 6 hours, giving 10^6 bacteria/ml.
Three trials were performed per antibiotic and per bacterial inoculum. The trials were performed first with the antibiotics alone (trials a).sctn., and then with the addition of a dose of 1 mg/l of an aqueous solution of lithium fluoride (trials b).sctn. to the dilution of each one in every cup of every plate.

[3] = test system: Pseudomonas aeruginosa; assay: "chess" test, dilution in liquid medium, Trial 4; format: cell-based
From the text: (§1) Substance A was gentamicine
The strain was pseudomonas aeruginosa (wild-type hospital resistant strain)

[4] = test system: pseudomonas aeruginosa and Escherichia coli; format: cell-based
From the text: It is known that a strain develops a resistance against an antibiotic substance with which it is left in contact, by a phenotypical mutation procedure.
This phenomena has been studied on pseudomonas aeruginosa and Escherichia coli (wild-type hospital strains) which commonly develop resistance against aminosides. The antibiotic substance choosen was thus gentamicine which is an aminoside antibiotic.
And the growth of the resistance was studied with gentamicine alone, then with gentamicine in presence of Fli.
The trial was conducted on 12 days, and the MIC of gentamicine alone and of gentamicine in presence of Fli (4 ppm) was determined each day on transportplates in liquid medium with a serie of dilution in Mueller/Hinton agar.
The MBC (Minimal Bactericide Concentration) was also determined from the solution after determination of the MIC seeded on agar adapted to the strain. The MBC is read for a percentage of survivors less than 0,20%.

[5] = test system: Klebsiella pneumoniae; assay: "chess" test, dilution in liquid medium, Trial 3; format: cell-based
From the text: as §1
The strain was Klebsiella pneumoniae (wild-type hospital strain)

[6] = test system: Staphylococcus aureus
Procedure: Concentration series of two antibiotic substances A and B are prepared in the geometric ratio of 2 are combined and the following values are determined:
MIC B/A = minimal inhibiting concentration B in presence of A [formula]
The MIC of the bacteriostatic effect is read when the percentage of surviving strains is less or equal to 1%.
The combination of the substances A and B is synergistic as regards the bacteriostatic effect when FIC≤0,75. The combination is additive when FIC=1. The combination is insensible when 1<FIC≤2. The combination is antagonistic when FIC>2.
Substance A was tetracycline (concentration serie from 0,25 to 128 mg/l)
Substance B was Fli (concentration serie from 0,25 to 16 mg/l)
The strain was staphylococcus aureus (wild-type hospital resistant strain)

[7] = test system: serratia marcescens; assay: MIC of gentamicine, inclined agar with concentration gradient; format: cell-based; conditions: alone; SENSIBLE strains
Procedure: (§2) The strains used were wild-type hospital strains having a resistant phenotype as regards gentamicine: pseudomonas aeruginosa, proteus mirabilis, serratia marcescens.
(§3) The phenotype of the strains was determined by diffusion in gradient on selective agar. Then, each group of strains having the same phenotype (resistant or sensible) was seeded on inclined agar having a gradient of concentration of the composition.
(§4) This methodology is explained by SZYBALSKI and BRYSON in "Selection de mutants resistant aux antibiotiques", L'antibiogramme, Vigot, p. 259-260.
(§5) The results are shown in the following table illustrating the MIC of gentamicine (aminoglycoside antibiotic).
(§6) x/y means a concentration read between x ppm and y ppm.

[8] = test system: Pseudomonas aeruginosa; assay: as above; format: cell-based; conditions: alone; SENSIBLE strains
Procedure: as §2, §3, §4, §5, §6

[9] = test system: proteus mirabilis; assay: as above; format: cell-based; conditions: alone; SENSIBLE strains
Procedure: as §2, §3, §4, §5, §6

[10] = test system: proteus mirabilis; assay: "chess" test, dilution in liquid medium, Trial 2; format: cell-based
From the text: as §1
The strain was a very resistant proteus mirabilis (wild-type hospital)

[11] = test system: MAC COY cells; assay: Cytotoxic activity with respect to MAC COY cells; conditions: LiF at 1 mg/l; benzalkonium chloride under the conditions of the trials
[12] = test system: spermatozoa; assay: SANDERS-CRAMER total spermicidal test according to IPPF standards; format: cell-based; conditions: alone
[13] = test system: salmonella spirochete; assay: "Time killing curve", optical density at 600 nm; format: cell-based; conditions: Fli 32 ppm
Procedure: (§7) The kinetics of the bacterial growth of serratia marcescens and salmonella spirochete has been studied with the "Time killing curve" methodology, for gentamicine (64 ppm) alone, Fli (32 ppm) and gentamicine (64 ppm) in presence of Fli (32 ppm). The bacterial growth is determined by spectrophotometric reading of the optical density for a wavelength of 600 nm.
(§8) The following table illustrates the optical density (1/100) obtained: […]

[14] = test system: serratia marcescens; assay: "Time killing curve", optical density at 600 nm; format: cell-based; conditions: Fli 32 ppm
Procedure: as §7, §8

[15] = B (Fli) in presence of A (gentamicine)
[16] = alone, wild-type hospital resistant strain

- MIC ([2]; + LiF 1 mg/l, strain lic R βLac^+ OXA): 64 µg/mL
- MIC ([2]; + LiF 1 mg/l, strain lic R βLac^+ PSE): 32 µg/mL
- MIC ([2]; + LiF 1 mg/l, strain lic R βLac^+ TEM): 32 µg/mL
- MIC ([2]; + LiF 1 mg/l, strain lic R βLac^+ cephalosporinase): 64 µg/mL
- MIC ([2]; + LiF 1 mg/l, strain lic S βLac^- (first column)): 4 µg/mL
- MIC ([2]; + LiF 1 mg/l, strain lic S βLac^- (second column)): 16 µg/mL
- MIC ([2]; alone, strain lic R βLac^+ OXA): 64 µg/mL
- MIC ([2]; alone, strain lic R βLac^+ PSE): 64 µg/mL
- MIC ([2]; alone, strain lic R βLac^+ TEM): 32 µg/mL
- MIC ([2]; alone, strain lic R βLac^+ cephalosporinase): 64 µg/mL
- MIC ([2]; alone, strain lic S βLac^- (first column)): 8 µg/mL
- MIC ([2]; alone, strain lic S βLac^- (second column)): 16 µg/mL
Structure (SMILES): CCN1CCN(C(=O)N[C@@H](C(=O)N[C@@H]2C(=O)N3C(C(=O)O)=C(CSc4nnnn4C)CS[C@H]23)c2ccc(O)cc2)C(=O)C1=O [CEFOPERAZONE, cefoperazone]
- phenotype in presence of Fli [1]: the resistant phenotype was not changed

Structure (SMILES): [F-].[Li+] [lithium fluoride]
- MIC B/A [3, 15]: 16 µg/mL
- MIC alone (MIC A, MIC B) [3, 16]: 128 µg/mL
- effect on creation of resistance [4]: retards the creation of the resistance and reduces to the half the capability of each strain for developping such resistances
- resistance developed by the strain ([4]; against Fli, 12 days): no resistance is developped
- MIC B/A [5, 15]: 32 µg/mL
- MIC alone (MIC A, MIC B) ([5]; alone, wild-type hospital strain): 128 µg/mL
- MIC B/A ([6]; B (Fli) in presence of A (tetracycline)): 16 µg/mL
- MIC alone (MIC A, MIC B) [6, 16]: 64 µg/mL
- MIC [7]: > 32 ppm or mg/l
- MIC [8]: > 32 ppm or mg/l
- MIC [9]: > 32 ppm or mg/l
- MIC B/A [10, 15]: 16 µg/mL
- MIC alone (MIC A, MIC B) ([10]; alone, very resistant wild-type hospital strain): 128 µg/mL
- toxic activity [11]: does not have toxic activity
- MIC [12]: ~3 ppm
- MIC, equivalent in % [12]: ~0.0003%
- optical density (1/100) ([13]; 3 h 00, gentamicine 64 ppm): 14 1/100
- optical density (1/100) ([13]; 24 h 00, gentamicine 64 ppm): 20 1/100
- optical density (1/100) ([14]; 3 h 00, gentamicine 64 ppm): 13 1/100
- optical density (1/100) ([14]; 6 h 00, gentamicine 64 ppm): 15 1/100
- optical density (1/100) ([14]; 24 h 00, gentamicine 64 ppm): 18 1/100
